Where two headings read alike, the source gives them in different places.
Legend:
[1] = biological target: T1, PDI (PDIA1), purified / recombinant wild-type human PDI (Homo sapiens, UniProt P07237); assay: biochemical
[2] = biological target: T1, PDI (PDIA1), purified / recombinant wild-type human PDI; assay: biochemical; remark: listed apart in the source

T1 sequence (P07237 18-508): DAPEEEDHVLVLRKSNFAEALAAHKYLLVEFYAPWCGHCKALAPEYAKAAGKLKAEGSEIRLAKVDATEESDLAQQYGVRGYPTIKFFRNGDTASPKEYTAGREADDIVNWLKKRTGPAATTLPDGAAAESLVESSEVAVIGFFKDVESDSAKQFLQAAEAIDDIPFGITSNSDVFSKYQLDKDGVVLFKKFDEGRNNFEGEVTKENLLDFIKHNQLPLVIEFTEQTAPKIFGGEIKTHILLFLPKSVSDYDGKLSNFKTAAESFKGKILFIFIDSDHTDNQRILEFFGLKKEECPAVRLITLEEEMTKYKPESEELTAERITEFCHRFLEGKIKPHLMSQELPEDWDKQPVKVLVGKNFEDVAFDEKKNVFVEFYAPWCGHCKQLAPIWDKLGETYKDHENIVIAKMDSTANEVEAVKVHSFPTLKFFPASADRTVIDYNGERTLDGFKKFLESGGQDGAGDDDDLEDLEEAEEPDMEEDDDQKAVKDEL

Kd [1]	Kd [2]	SMILES
24.2 nM		C[C@]12CC[C@@H]3c4cc(O)c(O)cc4CC[C@H]3[C@@H]1CCC2=O [2-OH-E1, 1,3,5([10])-Estratrien-2,3-diol-17-one]
	61.3 to 68.3 nM	C[C@]12CC[C@@H]3c4cc(O)c(O)cc4CC[C@H]3[C@@H]1CC[C@@H]2O [2-OH-E2, 1,3,5([10])-estratrien-2,3,17β-triol]
